This passage reports TGI results from PubChem BioAssay (NCI).

Some test systems named below: CAKI-1 renal; NCI-H226 lung; UO-31 renal; SK-MEL-5 melanoma; MOLT-4 leukemia; SF-268 CNS; CCRF-CEM leukemia; UACC-257 melanoma; OVCAR-4 ovarian; SK-OV-3 ovarian; LOX IMVI melanoma; KM12 colon; HCT-116 colon; NCI-H460 lung; HCC-2998 colon; EKVX NSCLC; COLO 205 colon; IGROV1 ovarian; NCI-H522 lung; HOP-92 NSCLC.
What all share (test): NCI-60 cell line screen, 48 h

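Method: 48-hour compound exposure of cells in 96-well plates, five concentrations, linear interpolation of endpoints. TGI is the concentration that stops growth completely.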

On to `CN1Cc2cc(O)c(O)cc2C(O)C1` (configuration not stated), for which the TGI is over 100 µM in the assay on CAKI-1 renal; over 100000 nM in the assay with NCI-H226 lung; over 100 µM in the assay on UO-31 renal; over 100000 nM with SK-MEL-5 melanoma; over 100 µM with MOLT-4 leukemia; over 100 µM in the assay on SF-268 CNS. The TGI in the assay on CCRF-CEM leukemia, in the assay with UACC-257 melanoma, with OVCAR-4 ovarian, in the assay with SK-OV-3 ovarian, with LOX IMVI melanoma and in the assay with KM12 colon was over 100 µM each time. In addition, the TGI is over 100 µM with HCT-116 colon; over 100 µM in the assay on NCI-H460 lung; over 100 µM in the assay with HCC-2998 colon; over 100000 nM in the assay with EKVX NSCLC; over 100000 nM with COLO 205 colon; over 100 µM with IGROV1 ovarian. The TGI is over 100000 nM with NCI-H522 lung and over 100 µM in the assay with HOP-92 NSCLC.
For the compound `COc1cc2c(cc1Oc1c(Oc3c(O)c(OC)cc4c3C(CC(C)C)N(C)CC4)c(OC)cc3c1C(CC(C)C)N(C)CC3)C(CC(C)C)N(C)CC2` (configuration not stated), the TGI in the assay on CAKI-1 renal was found to be 4.5 µM; in the assay with NCI-H226 lung, 2500 nM; in the assay with UO-31 renal, 11.9 µM; with SK-MEL-5 melanoma it was 832 nM; in the assay on MOLT-4 leukemia, 4.05 µM; with SF-268 CNS, 8.85 µM. Moreover, the TGI was 6.3 µM in the assay on CCRF-CEM leukemia; 11.5 µM with UACC-257 melanoma; 8.15 µM with OVCAR-4 ovarian; 11.8 µM with SK-OV-3 ovarian; 5.52 µM with LOX IMVI melanoma; 3.78 µM with KM12 colon. For the same compound, the TGI in the assay on HCT-116 colon is 3.85 µM; in the assay on NCI-H460 lung, 1.69 µM; in the assay on HCC-2998 colon, 5.17 µM; in the assay with EKVX NSCLC, 2180 nM; in the assay with COLO 205 colon it was 837 nM; with IGROV1 ovarian it was 15.1 µM. For the same compound, the values for the TGI in the assay with NCI-H522 lung and in the assay with HOP-92 NSCLC were 3580 nM and 7.87 µM, respectively.
As to `CCOc1ccc(C(C)c2cc3c(cc2OC)OCO3)cc1` (configuration not stated), the TGI was over 100 µM in the assay with CAKI-1 renal; 752 nM with NCI-H226 lung; over 100 µM in the assay with UO-31 renal; 1150 nM with SK-MEL-5 melanoma; 15 µM in the assay on MOLT-4 leukemia; 45.5 µM in the assay with SF-268 CNS. The TGI with UACC-257 melanoma is 52.8 µM; in the assay with OVCAR-4 ovarian, over 100 µM; in the assay on SK-OV-3 ovarian, over 100 µM; in the assay on LOX IMVI melanoma, over 100 µM; with HCT-116 colon, 4.82 µM; with NCI-H460 lung, over 100 µM. Further, the TGI with HCC-2998 colon was 12.1 µM; in the assay on IGROV1 ovarian, over 100 µM; with NCI-H522 lung, 166 nM; with HOP-92 NSCLC it was 9.93 µM.
Take `COc1cc2cc(C(=O)N3CC(CCl)c4ccc(N(C)C)cc43)[nH]c2c(OC)c1OC` (configuration not stated): the TGI with CAKI-1 renal is 1.28 µM; in the assay on NCI-H226 lung, 428 nM; in the assay with UO-31 renal, 0.143 µM; in the assay with SK-MEL-5 melanoma it was 236 nM; in the assay with MOLT-4 leukemia, 0.443 µM; with SF-268 CNS, 3.81 µM. Also, the TGI in the assay on CCRF-CEM leukemia came to 0.633 µM; with OVCAR-4 ovarian, 0.729 µM; in the assay on SK-OV-3 ovarian, 1.54 µM; with LOX IMVI melanoma it was 0.289 µM; in the assay on KM12 colon, 0.543 µM; in the assay on NCI-H460 lung it was 7.01 µM. In addition, the TGI in the assay with HCC-2998 colon is 0.106 µM; with EKVX NSCLC, 558 nM; with COLO 205 colon, 213 nM; in the assay on NCI-H522 lung, 34.9 nM.
